Tests used:
Type in all cases: cell-based, human
[1] = system: ALDH1; assay: Aldefluor assay of ALDH1 enzyme activity / ALDH1-High cell fraction; conditions: A2780-Low and CP70-Low cells; ATRA (10 μM) or paclitaxel (60 ng/ml) for 4 days
Experimental: (§1) An Aldefluor® kit (StemCell Technologies) was used to assess ALDH activity in the ovarian cancer cell lines, as previously described (Saw, Y. T. et al. (2012) BMC Cancer, 12, 329.). In brief, 1×10^6 cells were incubated in Aldefluor® assay buffer containing a 1.5 μM ALDH substrate for 30 min at 37° C. Each sample was treated with 50 μM of DEAB, and used as a negative control. Prior to analysis, cells were stained with […] of propidium iodide to evaluate their viability. The fluorescence intensity of the stained cells was analysed using a FACSAria cell sorter Flow Cytometer (BD Biosciences). The reaction with DEAB was used to define the baseline for the assay. The ALDH activity of a sample was determined to be ‘high’ or ‘low’ based on the fluorescence intensity beyond or below the threshold defined by the reaction with DEAB. The cells having high or low ALDH activity are marked “-High” or “-Low” hereafter.

[2] = system: A2780 and CP70 ovarian cancer cells; assay: Sphere formation assay; conditions: for sphere formation efficiency: control and shALDH1 cells (A2780, CP70, CP70-vector, CP70-shALDH1), 1 μM Thiostrepton or 10 μM DAPT, 10 days
Experimental: FIGS. 1A-1F show ALDH1 regulates stemness and tumourigenic ability in ovarian cancer cells. […] A total of 1×10^3 A2780 (upper panel) and CP70 (lower panel) cells were seeded into a 96-well plate to evaluate the cells' sphere formation ability (scale bar=200 μm). DEAB was used to inhibit the reaction of ALDH1 and also served as a negative control. […] The β-actin was used as a protein loading control. The histogram represents the relative fold change of protein expression (right panel). […] A2780-ALDH1 (upper panel) and CP70-shALDH1 (lower panel) cells were seeded into 96-well plates to evaluate their sphere formation ability (scale bar=200 μm).
FIGS. 2A-2D show ALDH1 regulates stemness and tumourigenic ability through the FoxM1 and Notch1 signalling pathways. […] Representative images show spheres generated from single-cell cultures after 10 days. The lower panel depicts the relative sphere formation ratio (scale bar=200 μm). […] V: vector.
(§2) Standard sphere formation assays were performed according to Zhang et al. (Zhang, S. et al. Cancer Res., 68, 4311-4320.) with minor modification. The cells (1×10^3) were resuspended in serum-free DMEM/F12 medium supplemented with 5 μg/ml insulin (Sigma), 20 ng/ml human recombinant epidermal growth factor (EGF; Invitrogen, Life Technologies, Carlsbad, Calif.) and 10 ng/ml basic fibroblast growth factor (bFGF; Invitrogen) in ultra-low attachment plates (Corning Costar, Corning, N.Y.). Spheres that arose within 1-2 weeks were counted. Colony diameters >50 μm were counted as a single-positive colony. The middle field was chosen for counting of spheres, and two fields for each plate were counted under a dissecting microscope. For all sphere formation experiments, a minimum of eight wells was run for each condition. All data represent the mean ±SEM of three separate experiments and at least 24 different fields.
as §1

[3] = system: ALDH1, FoxM1, Notch1, Oct-4 and Nanog expression in A2780 and CP70 cells; assay: Western blotting of ALDH1, FoxM1, Notch1 and CSC markers; conditions: for ALDH1 expression / FoxM1 expression / Notch1 expression: A2780 and CP70 cells; for ALDH1 expression: 1 μM Thiostrepton or 10 μM DAPT; for FoxM1 expression / Notch1 expression: 1 μM Thiostrepton, 10 μM DAPT, or DEAB
[4] = system: ALDH1, FoxM1 and Notch-1 expression in ES2 cells; assay: Western blotting of ALDH1, FoxM1 and Notch1; conditions: ES2-Low cells; Thiostrepton or DAPT
[5] = system: ALDH1, FoxM1 and Notch-1 expression in ES2 cells; assay: Western blotting of ALDH1, FoxM1 and Notch1; conditions: ES2-High cells; for ALDH1 expression: Thiostrepton or DAPT; for FoxM1 expression / Notch1 expression: different concentrations of Thiostrepton or DAPT
Experimental: (§3) Right panel: relative fold changes of ALDH1 and FoxM1 expression compared with controls. […] Sphere formation in ES2-High cells after treatment with different concentrations of Thiostrepton or DAPT, and the relative fold changes in expression are shown (scale bar=200 μm).
The cells were lysed and then harvested using a cell lifter (Corning Costar). Protein concentrations were determined by Bio-Rad protein assay (Bio-Rad, Hercules, Calif.). Proteins were then separated by 10% sodium dodecyl sulphate-polyacrylamide gel electrophoresis and transferred to polyvinylidene difluoride membranes. Western blotting was performed using the following antibodies at the indicated dilutions: anti-ALDH1 (1:1000; BD Biosciences), anti-Oct4 (1:1000; BD Biosciences), anti-Nanog (1:1000; BD Biosciences), anti-Notch1 (1:1000; Abcam, Cambridge, UK), anti-FoxM1 (1:1000; Santa Cruz Biotechnology, Santa Cruz, Calif.) and anti-beta actin (1:5000; Sigma).

[6] = system: ES2 cells (ES2-High, ES2-Low); assay: Sphere formation assay; conditions: for sphere formation: ES2-High cells, different concentrations of Thiostrepton or DAPT; for decrease of sphere formation: ES2-Low cells, Thiostrepton or DAPT
Experimental: as §3, §2, §1

[7] = system: A2780 and CP70 ovarian cancer cells; assay: MTT cytotoxicity assay (proliferation, doubling time); parameters: toxicity: dose or concentration left out as unconfirmed; conditions: for cell proliferation: A2780 and CP70 derived cells, inhibitor treatment
Experimental: The cell lines were cultured in a humidified incubator containing 95% air and 5% CO2 at 37° C. in 96-well flat-bottomed microtiter plates. After 72 h of incubation, the in vitro cytotoxic effects of treatments were determined by MTT assay (at 570 nm).

SMILES | proportion of ALDH1-High cells [1] | sphere formation efficiency [2] | FoxM1 expression in FoxM1-overexpressing cells ([3]; A2780-FoxM1 cells, immunoblot, DAPT) | ALDH1 expression ([3]; western blotting) | FoxM1 expression ([3]; western blotting) | Notch1 expression ([3]; western blotting) | downregulation of FoxM1 and Notch1 expression [4] | ALDH1 expression [5] | FoxM1 expression [5] | Notch1 expression [5] | sphere formation [6] | decrease of sphere formation [6] | cell proliferation [7] | toxicity ([7]; A2780 and CP70-shALDH1 cells, effect not significant) | sphere formation ([2]; ALDH1-High A2780 or CP70 cells, DEAB treatment) | expression of CSC marker proteins FoxM1, Notch1, Oct 4 and Nanog ([3]; ALDH1-High cells, DEAB treatment, western blotting)
CC(=O)O[C@H]1C(=O)[C@@]2(C)[C@H]([C@H](OC(=O)c3ccccc3)[C@]3(O)C[C@H](OC(=O)[C@H](O)[C@@H](NC(=O)c4ccccc4)c4ccccc4)C(C)=C1C3(C)C)[C@]1(OC(C)=O)CO[C@@H]1C[C@@H]2O [paclitaxel] | increased proportion of ALDH1-High cells | – | – | – | – | – | – | – | – | – | – | – | – | – | – | –
C[C@H](NC(=O)Cc1cc(F)cc(F)c1)C(=O)N[C@H](C(=O)OC(C)(C)C)c1ccccc1 [DAPT, N-[2S-(3,5-difluorophenyl)acetyl]-L-alanyl-2-phenyl-1,1-dimethylethyl ester-glycine] | – | decreased sphere formation efficiency | failed to attenuate FoxM1 expression | did not affect ALDH1 expression | decreased Notch1 expression as well as FoxM1 expression, but to a lesser extent | decreased Notch1 expression | not observed | did not affect ALDH1 expression | downregulated the expression levels of both FoxM1 and Notch1 in ES2-High cells in a dose-dependent manner | downregulated the expression levels of both FoxM1 and Notch1 in ES2-High cells in a dose-dependent manner | decreased sphere formation in ES2-High cells in a dose-dependent manner | not observed | did not affect proliferation | – | – | –
C=C(NC(=O)C(=C)NC(=O)c1csc(C2=N[C@@H]3c4csc(n4)[C@H]4NC(=O)c5csc(n5)[C@H]([C@](C)(O)[C@@H](C)O)NC(=O)[C@H]5CSC(=N5)/C(=C/C)NC(=O)[C@H]([C@@H](C)O)NC(=O)c5csc(n5)[C@]3(CC2)NC(=O)[C@H](C)NC(=O)C(=C)NC(=O)[C@H](C)NC(=O)[C@H]([C@@H](C)CC)N[C@@H]2C=Cc3c([C@H](C)O)cc(nc3[C@H]2O)C(=O)O[C@@H]4C)n1)C(N)=O [Thiostrepton, thiostrepton] | – | decreased sphere formation efficiency | – | did not affect ALDH1 expression | reduced the expression not only of FoxM1 but also of Notch1 | reduced the expression not only of FoxM1 but also of Notch1 | not observed | did not affect ALDH1 expression | downregulated the expression levels of both FoxM1 and Notch1 in ES2-High cells in a dose-dependent manner | downregulated the expression levels of both FoxM1 and Notch1 in ES2-High cells in a dose-dependent manner | decreased sphere formation in ES2-High cells in a dose-dependent manner | not observed | – | slight toxicity | – | –
CCN(CC)c1ccc(C=O)cc1 [DEAB, diethylaminobenzaldehyde] | – | – | – | – | downregulated | downregulated | – | – | – | – | – | – | did not affect cell proliferation | – | suppressed sphere formation | inhibited

— patent publication US20170209403A1, “METHOD FOR REGULATING ALDEHYDE DEHYDROGENASE 1” (National Cheng Kung University, priority 2016, published 2017)
